Laboratory results taken from US5189157A, “Antibacterial cephalosporin compounds” (Hoffmann La Roche Inc., priority 1988, dated 1993).
Where a name gives a salt, the structure may show the parent alone.

Legend:
Format in all cases: cell-based
[1] = test system: P. aeruginosa 8780; assay: In Vitro MIC, Broth Dilution Method; conditions: Pseudomonas aeruginosa, 8780, read-out: In Vitro MIC
[2] = test system: P. aeruginosa B; assay: In Vitro MIC, Broth Dilution Method; conditions: Pseudomonas aeruginosa
[3] = test system: P. aeruginosa 6148B; assay: In Vitro MIC, Broth Dilution Method; conditions: Pseudomonas aeruginosa
[4] = test system: P. aeruginosa Stone 130; assay: In Vitro MIC, Broth Dilution Method; conditions: Pseudomonas aeruginosa, STONE130
[5] = test system: P. aeruginosa K77/WT; assay: In Vitro MIC, Broth Dilution Method; conditions: Pseudomonas aeruginosa
From the text: (§1) The in vitro activity of the compounds of the present invention as measured by the Minimum Inhibitory Concentration in micrograms/ml utilizing the Agar Well Diffusion Method, Agar Dilution Method or Broth Dilution Method against a variety of Gram-positive and Gram-negative organisms, is as follows:
(§2) In Vitro MIC (μg/ml) Broth Dilution Method

[6] = test system: P. aeruginosa 1973E; assay: In Vitro MIC, Broth Dilution Method; conditions: Pseudomonas aeruginosa
From the text: as §1, §2

[7] = test system: P. aeruginosa 503-56; assay: In Vitro MIC, Broth Dilution Method; conditions: Pseudomonas aeruginosa, 50356
From the text: as §1, §2

[8] = test system: P. aeruginosa 8710; assay: In Vitro MIC, Broth Dilution Method; conditions: Pseudomonas aeruginosa
From the text: as §1, §2

[9] = test system: P. aeruginosa 765; assay: In Vitro MIC, Broth Dilution Method; conditions: Pseudomonas aeruginosa
From the text: as §1, §2

[10] = test system: P. aeruginosa 5700; assay: In Vitro MIC, Broth Dilution Method; conditions: Pseudomonas aeruginosa
From the text: as §1, §2

[11] = test system: P. aeruginosa ATCC 27853; assay: In Vitro MIC, Broth Dilution Method; conditions: Pseudomonas aeruginosa, ATCC27853
[12] = test system: P. mirabilis 190; assay: In Vitro MIC, Agar Dilution Method; conditions: Proteus mirabilis
From the text: as §1
(§3) In Vitro MIC (μg/ml) Agar Dilution Method

[13] = test system: P. aeruginosa 130; assay: In Vitro MIC, Agar Dilution Method; conditions: Pseudomonas aeruginosa
From the text: as §1, §3

[14] = test system: S. aureus 1059B; assay: In Vitro MIC, Agar Dilution Method; conditions: Staphylococcus aureus
From the text: as §1, §3

[15] = test system: P. aureus Giorgid; assay: In Vitro MIC, Agar Dilution Method
From the text: as §1, §3

[16] = test system: E. coli 48; assay: In Vitro MIC, Agar Dilution Method; conditions: Escherichia coli
From the text: as §1, §3

[17] = test system: S. marscescens SM; assay: In Vitro MIC, Agar Dilution Method
From the text: as §1, §3

[18] = test system: K. pneumoniae A; assay: In Vitro MIC, Agar Dilution Method; conditions: Klebsiella pneumoniae
From the text: as §1, §3

[19] = test system: S. aureus ATCC 25923; assay: In Vitro MIC, Agar Dilution Method; conditions: Staphylococcus aureus, ATCC25923
From the text: as §1, §3

[20] = test system: E. cloaca P99; assay: In Vitro MIC, Agar Dilution Method
From the text: as §1, §3

[21] = test system: S. aureus Smith; assay: In Vitro MIC, Agar Dilution Method; conditions: Staphylococcus aureus
From the text: as §1, §3

[22] = test system: P. aeruginosa Stone 130; assay: In Vitro MIC, Agar Dilution Method; conditions: Pseudomonas aeruginosa, STONE130
From the text: as §1, §3

[23] = test system: E. cloacae 9570A; assay: In Vitro MIC, Agar Dilution Method; conditions: Enterobacter cloacae
From the text: as §1, §3

[24] = test system: P. aeruginosa 185/H; assay: In Vitro MIC, Agar Dilution Method; conditions: Pseudomonas aeruginosa
From the text: as §1, §3

[25] = test system: P. aeruginosa K77/61; assay: In Vitro MIC, Broth Dilution Method; conditions: Pseudomonas aeruginosa, K77/61, read-out: In Vitro MIC
From the text: as §1, §2

`CO/N=C(\C(=O)N[C@@H]1C(=O)N2C(C(=O)O)=C(COC(=O)c3ccc(O)c(O)c3)CS[C@H]12)c1csc(N)n1` [Compound A, [6R-[6 alpha,7 beta(Z)]]-7-[[(2-amino-4-thiazolyl)(methoxyimino)acetyl]amino]-3-[[[(3,4-dihydroxyphenyl)carbonyl]oxy]methyl]-8-oxo-5-thia-1-azabicyclo[4.2.0]oct-2-ene-2-carboxylic acid monosodium salt] was tested, and the MIC [1] was 0.5 µg/mL, the MIC [2] was 2 µg/mL and the MIC [3] was 2 µg/mL. The MIC [4] was 2 µg/mL, the MIC [5] was 1 µg/mL and the MIC [6] was 4 µg/mL. It also gave an MIC [7] of 4 µg/mL, an MIC [8] of 2 µg/mL and an MIC [9] of 4 µg/mL. It also gave an MIC [10] of 8 µg/mL and an MIC [11] of 8 µg/mL.
Compound `CC(=O)Oc1ccc(C(=O)OCC2=C(C(=O)O)N3C(=O)[C@@H](NC(=O)/C(=N\OCC(N)=O)c4csc(N)n4)[C@H]3SC2)cc1OC(C)=O` [Compound B, [6R-[6 alpha,7 beta(Z)]]-3-[[[3,4-bis(acetyloxy)benzoyl]oxy]methyl]-7-[[[2-amino-4-thiazolyl][(2-amino-2-oxoethoxy)imino]acetyl]amino]-8-oxo-5-thia-1-azabicyclo[4.2.0]oct-2-ene-2-carboxylic acid monosodium salt] has an MIC [12] of 0.063 µg/mL, an MIC [13] of 4 µg/mL and an MIC [14] of 4 µg/mL. It also gave an MIC [15] of 8 µg/mL, an MIC [16] of 0.031 µg/mL and an MIC [17] of 1 µg/mL. The MIC [18] was 0.125 µg/mL, the MIC [19] was 2 µg/mL and the MIC [20] was 32 µg/mL. The MIC [21] was 4 µg/mL, the MIC [22] was 4 µg/mL and the MIC [23] was 1 µg/mL. It also gave an MIC [24] of 2 µg/mL.
For `CC(C)(O/N=C(\C(=O)N[C@@H]1C(=O)N2C(C(=O)O)=C(COC(=O)c3ccc(O)c(O)c3)CS[C@H]12)c1csc(N)n1)C(=O)O` [Compound C, [6R-[6 alpha,7 beta(Z)]]-7-[[(2-amino-4-thiazolyl)(1-carboxy-1-methylethoxy)-imino]acetyl]amino]-3-[[(3,4-dihydroxybenzoyl)oxy]methyl]-8-oxo-5-thia-1-azabicyclo[4.2.0]oct-2-ene-2-carboxylic acid disodium salt], the MIC [1] was > 0.008 µg/mL, the MIC [2] was 0.125 µg/mL and the MIC [6] was 2 µg/mL. For the same compound, the MIC [8] was 0.063 µg/mL, the MIC [9] was 8 µg/mL and the MIC [10] was 2 µg/mL. For the same compound, the MIC [25] was > 0.008 µg/mL.
`CCN1CCN(C(=O)N[C@@H](C(=O)N[C@@H]2C(=O)N3C(C(=O)O)=C(COC(=O)c4ccc(O)c(O)c4)CS[C@H]23)c2ccccc2)C(=O)C1=O` [Compound D, [6R-[6 alpha,7 beta(R*)]]-7-[[[[(4-ethyl-2,4-dioxo-1-piperazinyl)carbonyl]amino]phenylacetyl]amino]-3-[[(3,4-dihydroxy)benzoyl]oxy]-methyl]-8-oxo-5-thia-1-azabicyclo(4.2.0)oct-2-ene-2-carboxylic acid monosodium salt] showed an MIC [8] of 0.125 µg/mL.
